Results reported in patent US12570655B2, “Cysteine covalent modifiers of AKT1 and uses thereof” (Terremoto Biosciences, Inc., priority 2023, dated 2026).
Like-named read-outs stand apart in the source and are kept apart here.

How the values were obtained:
Format in all cases: cell-based
[1] = system: LAPC4 prostate cancer cells; experiment: Antiproliferative effects in LAPC4 cells (CellTiter Glo); conditions: LAPC4 cells (AKT1 E17K allele), read-out: LAPC4 proliferation IC50
Outline: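 Seed 1,000 cells/well in IMDM/12% FBS/1% P/S; add compound dilutions (DMSO); incubate 72 h; read intracellular ATP with CellTiter Glo; fit luminescence to log(inhibitor)-response Hill curve for IC50.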

AKT1 E17K = molecular target: T1, AKT1 E17K (Homo sapiens, UniProt P31749, E17K); experiment: Live cell AKT1 E17K target engagement by NanoBRET competitive probe displacement; conditions: HEK293 cells transfected with kinase-NanoLuciferase fusion, 2 h at 37° C.
T1 construct: expressed in transfected cells; host or cells: HEK293
Outline: (§1)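 IC50 reflects displacement of a fluorescent ATP-competitive tracer, dosed near its EC50, from kinase–NanoLuciferase fusions in live HEK293 cells. Cells were incubated with compound and tracer for 2 h at 37 °C, then E600/E460 BRET was read.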

AKT1 WT = molecular target: T2, AKT1 WT (Homo sapiens, UniProt P31749); experiment: Live cell AKT1 WT target engagement by NanoBRET competitive probe displacement; conditions: HEK293 cells transfected with kinase-NanoLuciferase fusion, 2 h at 37° C.
T2 construct: expressed in transfected cells; host or cells: HEK293
Outline: as §1

AKT2 = molecular target: T3, AKT2 (Homo sapiens, UniProt P31751); experiment: Live cell AKT2 target engagement by NanoBRET competitive probe displacement; conditions: HEK293 cells transfected with kinase-NanoLuciferase fusion, 2 h at 37° C.
T3 construct: expressed in transfected cells; host or cells: HEK293
Outline: as §1

T1 sequence (P31749 whole entry E17K, the tested form may be a part): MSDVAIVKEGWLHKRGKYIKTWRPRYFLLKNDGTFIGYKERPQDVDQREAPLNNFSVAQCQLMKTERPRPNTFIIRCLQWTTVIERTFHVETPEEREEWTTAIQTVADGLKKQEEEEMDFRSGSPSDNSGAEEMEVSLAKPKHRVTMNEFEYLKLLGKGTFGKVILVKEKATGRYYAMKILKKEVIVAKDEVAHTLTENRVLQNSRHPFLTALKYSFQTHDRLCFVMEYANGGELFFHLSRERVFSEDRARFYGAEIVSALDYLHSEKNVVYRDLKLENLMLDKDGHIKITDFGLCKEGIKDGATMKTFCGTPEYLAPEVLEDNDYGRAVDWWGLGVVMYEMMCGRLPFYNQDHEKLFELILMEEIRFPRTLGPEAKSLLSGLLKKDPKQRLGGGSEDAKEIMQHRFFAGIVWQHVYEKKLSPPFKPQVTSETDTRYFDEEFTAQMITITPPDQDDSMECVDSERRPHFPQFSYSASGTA
T3 sequence (P31751 whole entry, the tested form may be a part): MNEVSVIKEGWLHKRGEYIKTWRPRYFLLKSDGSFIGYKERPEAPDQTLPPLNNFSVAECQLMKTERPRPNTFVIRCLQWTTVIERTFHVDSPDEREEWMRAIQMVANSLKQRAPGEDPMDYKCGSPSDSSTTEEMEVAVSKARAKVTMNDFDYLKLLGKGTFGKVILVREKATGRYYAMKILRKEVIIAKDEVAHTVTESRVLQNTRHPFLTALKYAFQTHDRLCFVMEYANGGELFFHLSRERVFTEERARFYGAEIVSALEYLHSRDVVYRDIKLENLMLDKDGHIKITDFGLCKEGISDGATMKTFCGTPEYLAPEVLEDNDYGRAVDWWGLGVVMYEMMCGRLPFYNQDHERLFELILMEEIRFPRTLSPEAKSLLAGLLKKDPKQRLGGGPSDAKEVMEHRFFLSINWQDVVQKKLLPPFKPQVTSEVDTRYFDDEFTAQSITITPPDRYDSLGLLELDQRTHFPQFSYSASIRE
T2 sequence (P31749 whole entry, the tested form may be a part): as the sequence (P31749 whole entry E17K, the tested form may be a part) above, with K17E counted along it

SMILES | IC50 ([1]; Homo sapiens, LAPC4, 72 h) [nM] | IC50 (AKT1 E17K) [nM] | IC50 (AKT1 WT) [nM] | IC50 (AKT2) [nM] | IC50 ([1]; 72 h) [nM]
C=CC(=O)N1CCC(C(=O)N[C@H]2CCc3cc(-n4c(-c5cccnc5N)nc5ccc(-n6cccn6)nc54)ccc32)CC1 [Example 29, N-[(1S)-5-[2-(2-aminopyridin-3-yl)-5-(pyrazol-1-yl)imidazo[4,5-b]pyridin-3-yl]-2,3-dihydro-1H-inden-1-yl]-1-(prop-2-enoyl)piperidine-4-carboxamide] | 216 | 81.6 | 50.1 | 250 | 
C=CC(=O)N1CCC(N[C@H]2CCc3cc(-n4c(-c5cccnc5N)nc5ccc(C6CC6)nc54)ccc32)C(C)C1 (single isomer, unassigned) [Example 232, 1-((3*,4*)-4-(((S)-5-(2-(2-aminopyridin-3-yl)-5-cyclopropyl-3H-imidazo[4,5-b]pyridin-3-yl)-2,3-dihydro-1H-inden-1-yl)amino)-3-methylpiperidin-1-yl)prop-2-en-1-one] |  | 20.8 | 1080 | 168 | 651
C=CC(=O)N1CCC(N[C@H]2CCc3cc(-n4c(-c5cccnc5N)nc5ccc(-c6ncc(C)o6)nc54)ccc32)CC1 [Example 255, 1-(4-{[(1S)-5-[2-(2-aminopyridin-3-yl)-5-(5-methyl-1,3-oxazol-2-yl)imidazo[4,5-b]pyridin-3-yl]-2,3-dihydro-1H-inden-1-yl]amino}piperidin-1-yl)prop-2-en-1-one] | 214 | 33.2 | 547 | 177 | 
C=CC(=O)N1CCC(N[C@@H]2c3ccc(-n4c(-c5cccnc5N)nc5ccc(-n6cccn6)nc54)cc3CC2F)C[C@H]1C (single isomer, unassigned) [Example 144, 1-((2R,4*)-4-(((1R,2*)-5-(2-(2-aminopyridin-3-yl)-5-(1H-pyrazol-1-yl)-3H-imidazo[4,5-b]pyridin-3-yl)-2-fluoro-2,3-dihydro-1H-inden-1-yl)amino)-2-methylpiperidin-1-yl)prop-2-en-1-one] |  | 74.1 | 26 | 1180 | 293
C=CC(=O)N1CCC(N(CCOC)[C@H]2CCc3cc(-n4c(-c5cccnc5N)nc5ccc(-n6cccn6)nc54)ccc32)CC1 [Example 74, 1-(4-{[(1S)-5-[2-(2-aminopyridin-3-yl)-5-(pyrazol-1-yl)imidazo[4,5-b]pyridin-3-yl]-2,3-dihydro-1H-inden-1-yl](2-methoxyethyl)amino}piperidin-1-yl)prop-2-en-1-one] | 1630 | > 1000 | 179 | 2940 | 
C=CC(=O)Nc1c(F)cccc1C(=O)N[C@H]1CCc2cc(-n3c(-c4cccnc4N)nc4ccc(-n5cccn5)nc43)ccc21 [Example 44, N-[(1S)-5-[2-(2-aminopyridin-3-yl)-5-(pyrazol-1-yl)imidazo[4,5-b]pyridin-3-yl]-2,3-dihydro-1H-inden-1-yl]-3-fluoro-2-(prop-2-enamido)benzamide] | 122 | 49 | 34.5 | 103 | 
C=C(F)C(=O)N1CC2(CC(N[C@H]3CCc4cc(-n5c(-c6cccnc6N)nc6ccc(-n7cccn7)nc65)ccc43)C2)C1 [Example 83, (S)-1-(6-((5-(2-(2-aminopyridin-3-yl)-5-(1H-pyrazol-1-yl)-3H-imidazo[4,5-b]pyridin-3-yl)-2,3-dihydro-1H-inden-1-yl)amino)-2-azaspiro[3.3]heptan-2-yl)-2-fluoroprop-2-en-1-one] | 506 | 192 | 56.2 | 583 | 
C=CC(=O)Nc1cccc(C)c1C(=O)N[C@H]1CCc2cc(-n3c(-c4cccnc4N)nc4ccc(-n5cccn5)nc43)ccc21 [Example 15, (S)-2-acrylamido-N-(5-(2-(2-aminopyridin-3-yl)-5-(1H-pyrazol-1-yl)-3H-imidazo[4,5-b]pyridin-3-yl)-2,3-dihydro-1H-inden-1-yl)-6-methylbenzamide] | 366 | 78.7 | 34.3 | 377 | 
C=C(F)C(=O)Nc1cccc(C(=O)N[C@H]2CCc3cc(-n4c(-c5cccnc5N)nc5ccc(-n6cccn6)nc54)ccc32)c1 [Example 8, (S)-N-(5-(2-(2-aminopyridin-3-yl)-5-(1H-pyrazol-1-yl)-3H-imidazo[4,5-b]pyridin-3-yl)-2,3-dihydro-1H-inden-1-yl)-3-(2-fluoroacrylamido)benzamide] | 1120 | 112 | 7.07 | 71.5 | 

The next lines start with the values.

IC50 ([1]; Homo sapiens, LAPC4, 72 h) [nM] | IC50 (AKT1 E17K) [nM] | IC50 (AKT1 WT) [nM] | IC50 (AKT2) [nM] | IC50 ([1]; 72 h) [nM] | SMILES
 | 18.9 | 6.94 | 58.8 | 30.7 | C=CC(=O)N1CC2(CCC(N[C@H]3CCc4cc(-n5c(-c6cccnc6N)nc6ccc(-n7cccn7)nc65)ccc43)C2)C1 (single isomer, unassigned) [Example 92, 1-((*)-6-(((S)-5-(2-(2-aminopyridin-3-yl)-5-(1H-pyrazol-1-yl)-3H-imidazo[4,5-b]pyridin-3-yl)-2,3-dihydro-1H-inden-1-yl)amino)-2-azaspiro[3.4]octan-2-yl)prop-2-en-1-one]
719 | 70.6 | 1240 | 256 |  | C=CC(=O)N1CC2COC(C1)C2N[C@H]1CCc2cc(-n3c(-c4cccnc4N)nc4ccc(-n5cccn5)nc43)ccc21 (stereo partly drawn) [Example 224, 1-(8-{[(1S)-5-[2-(2-aminopyridin-3-yl)-5-(pyrazol-1-yl)imidazo[4,5-b]pyridin-3-yl]-2,3-dihydro-1H-inden-1-yl]amino}-6-oxa-3-azabicyclo[3.2.1]octan-3-yl)prop-2-en-1-one]
 | 8.39 | 9.35 | 31.7 | 17.1 | C=CC(=O)N1CCC(N[C@H]2CCc3cc(-n4c(-c5cccnc5N)nc5ccc(-n6cccn6)nc54)ccc32)C[C@H]1C (single isomer, unassigned) [Example 62, 1-((2R,4*)-4-(((S)-5-(2-(2-aminopyridin-3-yl)-5-(1H-pyrazol-1-yl)-3H-imidazo[4,5-b]pyridin-3-yl)-2,3-dihydro-1H-inden-1-yl)amino)-2-methylpiperidin-1-yl)prop-2-en-1-one]
 | 12.3 | 294 | 106 | 345 | C=CC(=O)N1CCC(N[C@H]2CCc3cc(-n4c(-c5cccnc5N)nc5ccc(-n6cccn6)nc54)ccc32)C(C)(F)C1 (single isomer, unassigned) [Example 307, 1-((3*,4*)-4-(((S)-5-(2-(2-aminopyridin-3-yl)-5-(1H-pyrazol-1-yl)-3H-imidazo[4,5-b]pyridin-3-yl)-2,3-dihydro-1H-inden-1-yl)amino)-3-fluoro-3-methylpiperidin-1-yl)prop-2-en-1-one]
 | > 1000 | 407 | 3940 | 2850 | C=CC(=O)N1CCOCC(N[C@H]2CCc3cc(-n4c(-c5cccnc5N)nc5ccc(-n6cccn6)nc54)ccc32)C1 (single isomer, unassigned) [Example 53, 1-((*)-6-(((S)-5-(2-(2-aminopyridin-3-yl)-5-(1H-pyrazol-1-yl)-3H-imidazo[4,5-b]pyridin-3-yl)-2,3-dihydro-1H-inden-1-yl)amino)-1,4-oxazepan-4-yl)prop-2-en-1-one]
